≈ marks a conversion by molar mass, not a printed value.
How the values were obtained:
SW-620 [1] = experiment: Inhibition of phosphorylation of histone H3 in human SW620 cells; assay type: functional, cell-based
Aurora kinase A = target: T1, Aurora kinase A (Homo sapiens, UniProt O14965)
T1 sequence (O14965 whole entry): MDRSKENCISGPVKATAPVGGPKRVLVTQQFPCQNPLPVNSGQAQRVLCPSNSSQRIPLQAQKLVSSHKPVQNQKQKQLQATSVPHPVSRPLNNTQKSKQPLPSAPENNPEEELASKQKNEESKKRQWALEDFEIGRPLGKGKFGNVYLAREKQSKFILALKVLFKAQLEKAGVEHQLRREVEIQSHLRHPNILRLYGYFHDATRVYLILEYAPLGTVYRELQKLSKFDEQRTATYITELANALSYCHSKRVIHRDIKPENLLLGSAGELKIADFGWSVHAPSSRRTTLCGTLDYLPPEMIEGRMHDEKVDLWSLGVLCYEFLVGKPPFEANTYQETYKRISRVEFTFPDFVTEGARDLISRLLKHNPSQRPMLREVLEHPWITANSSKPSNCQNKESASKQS
Description: Inhibition of Aurora A kinase activity

[2] = Inhibition of Aurora B-INCENP complex activity
[3] = Volume of distribution in rat; assay type: ADME, organism-based; details: in vivo, read-out: Vdss
[4] = Clearance in rat; assay type: ADME, organism-based; details: in vivo
[5] = Half life in rat; assay type: ADME, organism-based; details: in vivo
[6] = target: Cyclin-dependent kinase 2 (Homo sapiens, UniProt P24941); experiment: Inhibitory activity against CDK2
[7] = target: Tyrosine-protein kinase CSK (Homo sapiens, UniProt P41240); experiment: Inhibitory activity against CSK
[8] = Solubility in phosphate buffer at pH 7.4, 25 degC; assay type: physicochemical
Focal adhesion kinase 1 = Focal adhesion kinase 1 (Homo sapiens, UniProt Q05397); experiment: Inhibitory activity against FAK
[9] = target: Fibroblast growth factor receptor (Homo sapiens, UniProt P22607+P11362+P22455+P21802); experiment: Inhibitory activity against FGFR; assay type: protein assay
[10] = target: Insulin-like growth factor 1 receptor (Homo sapiens, UniProt P08069); experiment: Inhibitory activity against IGFR
[11] = target: T2, Tyrosine-protein kinase JAK3 (Homo sapiens, UniProt P52333); experiment: Inhibitory activity against JAK3
T2 sequence (P52333 whole entry): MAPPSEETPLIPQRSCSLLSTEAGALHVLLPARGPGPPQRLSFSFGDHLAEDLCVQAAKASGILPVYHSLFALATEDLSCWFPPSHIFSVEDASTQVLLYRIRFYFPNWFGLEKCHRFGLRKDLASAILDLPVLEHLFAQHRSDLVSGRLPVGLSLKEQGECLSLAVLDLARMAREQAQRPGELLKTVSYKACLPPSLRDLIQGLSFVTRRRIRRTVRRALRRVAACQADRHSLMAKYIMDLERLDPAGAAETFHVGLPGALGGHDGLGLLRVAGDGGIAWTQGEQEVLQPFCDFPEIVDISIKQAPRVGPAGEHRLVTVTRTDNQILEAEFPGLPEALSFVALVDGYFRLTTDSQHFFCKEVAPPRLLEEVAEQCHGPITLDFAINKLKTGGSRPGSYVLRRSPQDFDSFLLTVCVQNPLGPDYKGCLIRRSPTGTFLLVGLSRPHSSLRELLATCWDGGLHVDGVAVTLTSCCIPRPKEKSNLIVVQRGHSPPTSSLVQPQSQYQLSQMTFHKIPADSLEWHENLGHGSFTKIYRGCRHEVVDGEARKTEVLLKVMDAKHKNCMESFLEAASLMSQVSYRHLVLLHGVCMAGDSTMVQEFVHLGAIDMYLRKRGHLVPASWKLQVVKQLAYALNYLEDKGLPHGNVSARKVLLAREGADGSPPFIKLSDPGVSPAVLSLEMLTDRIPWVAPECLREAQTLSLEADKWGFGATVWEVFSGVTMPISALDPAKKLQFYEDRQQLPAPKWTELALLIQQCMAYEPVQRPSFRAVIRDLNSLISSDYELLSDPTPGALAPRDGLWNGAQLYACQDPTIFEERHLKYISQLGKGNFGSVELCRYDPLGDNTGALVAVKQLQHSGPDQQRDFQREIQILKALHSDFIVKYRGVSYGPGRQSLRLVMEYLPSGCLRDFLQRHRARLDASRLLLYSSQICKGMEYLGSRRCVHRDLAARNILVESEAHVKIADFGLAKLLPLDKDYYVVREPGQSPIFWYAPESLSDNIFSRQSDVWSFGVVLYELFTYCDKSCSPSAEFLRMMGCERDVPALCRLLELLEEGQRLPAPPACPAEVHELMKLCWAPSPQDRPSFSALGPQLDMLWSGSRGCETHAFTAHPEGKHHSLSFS

[12] = target: Mitogen-activated protein kinase 8 (Homo sapiens, UniProt P45983); experiment: Inhibitory activity against JNK1alpha
[13] = target: Vascular endothelial growth factor receptor 2 (Homo sapiens, UniProt P35968); experiment: Inhibitory activity against KDR
[14] = target: Mitogen-activated protein kinase 14 (Homo sapiens, UniProt Q16539); experiment: Inhibitory activity against p38-alpha MAPK
[15] = target: cAMP-dependent protein kinase (PKA) (Homo sapiens, UniProt P22694+P17612+P22612); experiment: Inhibitory activity against PKA; assay type: protein assay
[16] = target: Proto-oncogene tyrosine-protein kinase Src (Homo sapiens, UniProt P12931); experiment: Inhibitory activity against SRC
[17] = Free drug level in rat serum albumin; assay type: ADME, organism-based
[18] = Distribution coefficient of the compound, log D at pH 7.4; assay type: physicochemical; details: octanol/water
SW-620 [19] = experiment: Antiproliferative activity against human colorectal carcinoma SW620 cells
[20] = Solubility in Tris buffer at pH 9.0, 25 degC; assay type: physicochemical
Mus musculus = species on record: Mus musculus; experiment: Conversion to parent, N-(3-fluorophenyl)-2-{2-[(7-{3 -[4-(hydroxymethyl)piperidin-1 -yl]propoxy}-6-methoxyquinazol in-4-yl)amino]-1,3-thiazol-5-y l}acetamide in mouse plasma; assay type: ADME, organism-based; details: in vivo
Aurora kinase B = Aurora kinase B (Homo sapiens, UniProt Q96GD4); experiment: Inhibition of Aurora-B immunoprecipitated from mitotic cells; assay type: functional
Aurora kinase B, sequence (Q96GD4 whole entry): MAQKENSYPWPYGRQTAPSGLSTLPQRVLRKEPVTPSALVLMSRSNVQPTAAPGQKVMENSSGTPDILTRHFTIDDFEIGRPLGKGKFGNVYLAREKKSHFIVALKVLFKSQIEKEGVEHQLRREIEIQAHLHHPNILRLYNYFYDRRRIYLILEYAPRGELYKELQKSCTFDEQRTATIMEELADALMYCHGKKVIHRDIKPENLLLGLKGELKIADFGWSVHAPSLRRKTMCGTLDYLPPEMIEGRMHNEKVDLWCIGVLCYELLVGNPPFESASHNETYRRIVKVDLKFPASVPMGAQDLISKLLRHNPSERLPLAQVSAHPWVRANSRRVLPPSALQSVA

Mitogen-activated protein kinase 8, sequence (P45983 whole entry): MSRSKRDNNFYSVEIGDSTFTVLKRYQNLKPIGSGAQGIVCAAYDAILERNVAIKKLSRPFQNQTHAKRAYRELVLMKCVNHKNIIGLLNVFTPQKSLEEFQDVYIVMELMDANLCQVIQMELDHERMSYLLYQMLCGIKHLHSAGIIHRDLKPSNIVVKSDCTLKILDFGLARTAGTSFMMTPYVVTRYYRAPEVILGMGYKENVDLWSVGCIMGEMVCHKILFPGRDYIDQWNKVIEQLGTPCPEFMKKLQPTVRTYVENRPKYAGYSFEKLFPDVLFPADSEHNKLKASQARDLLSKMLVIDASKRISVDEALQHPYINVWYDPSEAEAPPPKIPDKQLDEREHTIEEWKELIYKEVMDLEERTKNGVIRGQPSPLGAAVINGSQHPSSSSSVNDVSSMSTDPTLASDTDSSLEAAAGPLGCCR
Vascular endothelial growth factor receptor 2, sequence (P35968 whole entry): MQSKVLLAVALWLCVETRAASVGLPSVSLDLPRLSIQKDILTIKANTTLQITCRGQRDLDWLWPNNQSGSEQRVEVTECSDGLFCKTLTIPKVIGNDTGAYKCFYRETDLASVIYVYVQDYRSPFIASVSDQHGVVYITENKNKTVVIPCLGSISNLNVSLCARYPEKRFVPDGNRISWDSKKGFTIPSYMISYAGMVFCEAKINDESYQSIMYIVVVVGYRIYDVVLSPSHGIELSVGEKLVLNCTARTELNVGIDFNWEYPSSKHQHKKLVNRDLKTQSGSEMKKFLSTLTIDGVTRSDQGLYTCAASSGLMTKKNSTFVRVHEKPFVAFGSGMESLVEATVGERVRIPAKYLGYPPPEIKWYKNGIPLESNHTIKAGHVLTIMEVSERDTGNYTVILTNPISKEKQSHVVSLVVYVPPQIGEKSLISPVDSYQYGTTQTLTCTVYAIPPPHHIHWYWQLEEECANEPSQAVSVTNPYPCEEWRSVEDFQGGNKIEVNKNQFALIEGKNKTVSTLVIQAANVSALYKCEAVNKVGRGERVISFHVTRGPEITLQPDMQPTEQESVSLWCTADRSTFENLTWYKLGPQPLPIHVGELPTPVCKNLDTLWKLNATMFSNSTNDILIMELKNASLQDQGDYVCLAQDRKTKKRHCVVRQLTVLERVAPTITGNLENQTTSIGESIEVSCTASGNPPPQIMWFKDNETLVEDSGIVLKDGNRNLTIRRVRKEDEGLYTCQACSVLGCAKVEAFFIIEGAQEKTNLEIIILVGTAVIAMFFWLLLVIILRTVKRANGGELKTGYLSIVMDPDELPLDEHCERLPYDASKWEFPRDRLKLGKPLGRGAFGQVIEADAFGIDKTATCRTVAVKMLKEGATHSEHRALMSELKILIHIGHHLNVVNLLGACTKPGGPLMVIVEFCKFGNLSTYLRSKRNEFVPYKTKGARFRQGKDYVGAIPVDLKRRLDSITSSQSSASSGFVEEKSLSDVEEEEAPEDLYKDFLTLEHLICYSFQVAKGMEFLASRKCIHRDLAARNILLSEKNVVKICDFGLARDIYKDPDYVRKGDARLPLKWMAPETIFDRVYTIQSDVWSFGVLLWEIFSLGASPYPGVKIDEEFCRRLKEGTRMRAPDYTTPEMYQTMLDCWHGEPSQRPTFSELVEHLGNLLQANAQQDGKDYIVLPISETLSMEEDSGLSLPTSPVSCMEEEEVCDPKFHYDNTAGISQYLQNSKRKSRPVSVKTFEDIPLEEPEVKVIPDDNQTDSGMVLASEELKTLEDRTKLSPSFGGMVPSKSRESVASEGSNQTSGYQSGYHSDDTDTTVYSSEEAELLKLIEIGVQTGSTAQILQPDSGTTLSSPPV
Proto-oncogene tyrosine-protein kinase Src, sequence (P12931 2-536 limits assumed): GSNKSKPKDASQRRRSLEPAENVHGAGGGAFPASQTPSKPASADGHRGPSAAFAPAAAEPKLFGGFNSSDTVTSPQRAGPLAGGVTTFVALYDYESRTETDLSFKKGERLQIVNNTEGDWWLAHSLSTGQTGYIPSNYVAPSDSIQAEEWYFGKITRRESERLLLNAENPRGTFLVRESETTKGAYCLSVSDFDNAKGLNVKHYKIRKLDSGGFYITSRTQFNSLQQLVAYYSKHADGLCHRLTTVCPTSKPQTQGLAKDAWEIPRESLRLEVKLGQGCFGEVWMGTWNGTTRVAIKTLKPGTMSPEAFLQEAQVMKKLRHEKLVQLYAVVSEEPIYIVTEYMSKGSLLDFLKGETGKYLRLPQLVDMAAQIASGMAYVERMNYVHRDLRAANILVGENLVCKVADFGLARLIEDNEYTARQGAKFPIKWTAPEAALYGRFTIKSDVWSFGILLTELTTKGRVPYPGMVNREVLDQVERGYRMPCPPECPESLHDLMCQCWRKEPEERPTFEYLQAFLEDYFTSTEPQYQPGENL
Tyrosine-protein kinase CSK, sequence (P41240 whole entry): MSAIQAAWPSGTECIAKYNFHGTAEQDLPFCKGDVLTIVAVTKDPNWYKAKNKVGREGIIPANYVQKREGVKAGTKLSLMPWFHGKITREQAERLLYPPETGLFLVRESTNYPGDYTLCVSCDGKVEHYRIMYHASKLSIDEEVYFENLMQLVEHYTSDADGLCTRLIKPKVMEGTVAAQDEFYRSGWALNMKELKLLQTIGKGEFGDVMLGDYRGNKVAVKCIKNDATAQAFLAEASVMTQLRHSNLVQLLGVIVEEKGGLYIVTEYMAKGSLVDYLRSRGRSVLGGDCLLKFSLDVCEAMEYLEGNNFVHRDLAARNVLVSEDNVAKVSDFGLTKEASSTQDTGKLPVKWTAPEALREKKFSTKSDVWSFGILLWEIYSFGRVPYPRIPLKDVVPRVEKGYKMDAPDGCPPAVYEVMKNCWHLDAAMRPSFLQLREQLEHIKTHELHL
Focal adhesion kinase 1, sequence (Q05397 whole entry): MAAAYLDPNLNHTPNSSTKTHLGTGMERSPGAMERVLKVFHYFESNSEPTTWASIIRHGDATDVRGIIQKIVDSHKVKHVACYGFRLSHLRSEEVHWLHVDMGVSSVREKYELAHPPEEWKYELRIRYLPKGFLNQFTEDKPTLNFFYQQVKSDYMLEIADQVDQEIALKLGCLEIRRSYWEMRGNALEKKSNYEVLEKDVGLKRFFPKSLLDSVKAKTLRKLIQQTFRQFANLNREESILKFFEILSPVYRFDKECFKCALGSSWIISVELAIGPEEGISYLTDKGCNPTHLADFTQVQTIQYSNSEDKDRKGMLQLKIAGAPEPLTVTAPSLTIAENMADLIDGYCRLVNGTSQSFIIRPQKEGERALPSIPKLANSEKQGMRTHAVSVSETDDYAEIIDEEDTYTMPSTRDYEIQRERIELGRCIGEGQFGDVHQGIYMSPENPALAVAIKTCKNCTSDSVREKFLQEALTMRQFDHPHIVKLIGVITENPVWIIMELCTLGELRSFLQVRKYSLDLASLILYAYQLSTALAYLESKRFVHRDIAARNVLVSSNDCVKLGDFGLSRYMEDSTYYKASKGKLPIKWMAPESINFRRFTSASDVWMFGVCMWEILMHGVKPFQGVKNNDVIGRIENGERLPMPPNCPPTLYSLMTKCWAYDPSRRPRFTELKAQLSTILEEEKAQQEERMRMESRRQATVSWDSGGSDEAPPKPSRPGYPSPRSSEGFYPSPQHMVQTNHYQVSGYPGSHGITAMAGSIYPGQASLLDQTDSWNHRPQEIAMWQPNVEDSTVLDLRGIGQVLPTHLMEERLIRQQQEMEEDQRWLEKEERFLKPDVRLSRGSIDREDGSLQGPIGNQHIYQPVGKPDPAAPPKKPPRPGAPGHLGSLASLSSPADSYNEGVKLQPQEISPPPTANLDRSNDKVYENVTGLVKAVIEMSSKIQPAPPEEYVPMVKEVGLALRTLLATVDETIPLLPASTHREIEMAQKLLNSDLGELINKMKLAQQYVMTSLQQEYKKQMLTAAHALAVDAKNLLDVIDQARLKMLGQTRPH
Mitogen-activated protein kinase 14, sequence (Q16539 whole entry): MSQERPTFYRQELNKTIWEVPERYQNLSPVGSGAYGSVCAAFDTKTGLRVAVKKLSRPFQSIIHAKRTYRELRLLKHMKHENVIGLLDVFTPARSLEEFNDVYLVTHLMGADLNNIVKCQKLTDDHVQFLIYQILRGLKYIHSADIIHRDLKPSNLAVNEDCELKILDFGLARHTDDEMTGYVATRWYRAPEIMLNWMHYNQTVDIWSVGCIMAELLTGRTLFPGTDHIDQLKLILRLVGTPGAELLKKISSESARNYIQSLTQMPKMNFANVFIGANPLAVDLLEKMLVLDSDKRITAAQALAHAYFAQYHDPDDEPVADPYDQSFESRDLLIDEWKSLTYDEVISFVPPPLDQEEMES

SMILES | IC50 (SW-620 [1]) [nM] | IC50 (Aurora kinase A) [nM] | IC50 [2] [nM] | further results
COc1cc2c(Nc3ncc(CC(=O)Nc4cccc(F)c4F)s3)ncnc2cc1OCCCN1CCC[C@H]1CO | 1 | 2 | – | –
COc1cc2c(Nc3ncc(CNC(=O)c4cccc(F)c4)s3)ncnc2cc1OCCCN1CCC(CO)CC1 | 2800 | 111 | 136 | –
COCCOc1cc2ncnc(Nc3ncc(CC(=O)Nc4cccc(F)c4)s3)c2cc1OC | 10 | 1 | 8 | –
COc1cc2c(Nc3ncc(CC(=O)Nc4cccc(F)c4)s3)ncnc2cc1OCCCN1CCC(CO)CC1 | 5 | – | 7 | Vd [3]: 1.8 L/kg; clearance [4]: 16.6 mL/min/kg; half-life [5]: 300 min; IC50 [6]: 62 µM; IC50 [7]: 21 µM; solubility [8]: 35 µg/mL (≈ 0.0603 mM); IC50 (Focal adhesion kinase 1): 4 µM; IC50 [9]: 8 µM; IC50 [10]: 13 µM; IC50 [11]: 25 µM; IC50 [12]: > 100 µM; IC50 [13]: 1000 nM; IC50 [14]: > 100 µM; IC50 [15]: > 100 µM; IC50 [16]: 3 µM; fraction unbound [17]: 0.024; logD [18]: 3.2; IC50 (SW-620 [19]): 2 nM
COc1cc2c(Nc3ncc(C)s3)ncnc2cc1OCCCN1CCOCC1 | 1100 | 43 | 133 | –
CCCCc1cnc(Nc2ncnc3cc(OCCCN4CCOCC4)c(OC)cc23)s1 | 1900 | 6 | 63 | –
COc1cc2c(Nc3ncc(SCc4cccc(F)c4)s3)ncnc2cc1OCCCN1CCC(CO)CC1 | 400 | < 1 | < 1 | –
CCN(C(=O)Cc1cnc(Nc2ncnc3cc(OCCCN4CCOCC4)c(OC)cc23)s1)c1ccccc1 | 2300 | 55 | 286 | –
CCN(CCO)CCCOc1cc2ncnc(Nc3ncc(CC(=O)Nc4cccc(F)c4)s3)c2cc1OC | < 1 | < 1 | < 1 | –
COc1cc2c(Nc3ncc(CC(=O)Nc4cccc(F)c4)s3)ncnc2cc1OCCCN1CCOCC1 | < 1 | < 1 | < 1 | –
COc1cc2c(Nc3nc(C(=O)Nc4ccc(F)cc4)c[nH]3)ncnc2cc1OCCCN1CCOCC1 | > 10000 | > 1000 | > 1000 | –
COc1cc2c(Nc3ncc(Oc4cccc(F)c4)s3)ncnc2cc1OCCCN1CCC(CO)CC1 | 200 | – | < 1 | –
COc1cc2c(Nc3ncc(CC(=O)Nc4cccc(F)c4)o3)ncnc2cc1OCCCN1CCOCC1 | 1000 | 472 | 341 | –
COc1cc2c(Nc3ncc(C(=O)Nc4ccc(F)cc4)s3)ncnc2cc1OCCCN1CCOCC1 | 600 | 1 | 49 | –
COc1cc2c(Nc3ncc(CC(=O)Nc4cccc(F)c4)s3)ncnc2cc1OCCN1CCC(CCO)CC1 | 19 | < 1 | < 1 | –
COc1cc2c(Nc3ncc(CC(=O)Nc4cccc(F)c4)s3)ncnc2cc1OCCCN1CCC(COP(=O)(O)O)CC1 | – | – | – | solubility [20]: 10000 µg/mL (≈ 15.1 mM); T1/2 (Mus musculus): 42 min
COc1cc2c(Nc3ncc(CC(=O)Nc4ccccc4C(N)=O)s3)ncnc2cc1OCCCN1CCC[C@H]1CO | > 10000 | 452 | 282 | –
COc1cc2c(Nc3ncc(CC(=O)Nc4cccc(N(C)C)c4)s3)ncnc2cc1OCCCN1CCC[C@H]1CO | 600 | 483 | 48 | –
COc1cc2c(Nc3ncc(CC(=O)Nc4cccc(F)c4)s3)ncnc2cc1OCCCNCCO | 80 | – | 1 | –
C#CCN(CCO)CCCOc1cc2ncnc(Nc3ncc(CC(=O)Nc4cccc(F)c4)s3)c2cc1OC | 20 | < 1 | < 1 | –
COc1cc2c(Nc3ncc(CC(=O)Nc4cccc(F)c4)s3)ncnc2cc1OCCCN1CCC[C@H]1CO | 4 | < 1 | < 1 | –
COc1cc2c(Nc3ncc(CC(=O)Nc4cccc(F)c4)s3)ncnc2cc1OCCCN1CCN(C)CC1 | 2 | < 1 | < 1 | –
COc1cc2c(Nc3ncc(CNS(=O)(=O)c4cccc(F)c4)s3)ncnc2cc1OCCCN1CCC(CO)CC1 | 800 | 12 | 28 | –
COc1cc2c(Nc3nc(CC(=O)Nc4cccc(F)c4)cs3)ncnc2cc1OCCCN1CCOCC1 | 200 | 578 | 12 | –
COc1cccc(NC(=O)Cc2cnc(Nc3ncnc4cc(OCCCN5CCC[C@H]5CO)c(OC)cc34)s2)c1 | 1000 | 106 | 5 | –
COc1cc2c(Nc3ncc(CC(=O)NCCC(C)C)s3)ncnc2cc1OCCCN1CCOCC1 | 400 | 158 | 5 | –
CCS(=O)(=O)Nc1ccc2c(c1)/C(=C(/Nc1ccc(CN3CCCCC3)cc1)c1ccccc1)C(=O)N2 [HESPERADIN] | – | – | – | IC50 (Aurora kinase B): 250 nM
